The results in this text go back to patent US6867305B2, “Synthesis of epothilones, intermediates thereto and analogues thereof” (Sloan-Kettering Institute for Cancer Research, priority 1996, dated 2005).

The data set can be described thus: Pharmacokinetics in beagle dogs. In kind it is in vivo. Conditions: male, dog, plasma, intravenous, 6 mg/kg, 10-min i.v. infusion. The protocol:
dEpoB at doses of 2, 6, 12 and 20 mg/kg, were given to male beagle dogs (11.2-14 kg) via i.v. infusion. The infusion volume was 1 ml/kg for 10 min using the Harvard PHD2000 pump (Harvard Apparatus). dEpoB was formulated in Cremophor 3%, ethanol 3%, propyleneglycol 40% and 5% glucose 54%. The animal was pretreated at −30 min with Benadryl 5 mg/kg, i.v.; cimetidine 5 mg/kg i.m.; and dexamethasone 1 mg/kg, i.e. to minimize allergic reactions due to Cremophor administration.
Pharmacokinetic studies were also carried out for of dEpoB in beagle dogs at 6 mg/kg (120 mg/m^2 body surface), with 10-min i.v. infusion. Serial blood samples were collected in 5 ml heparinized tubes intermittently from-15 min to 24 hours. Plasma concentrations of dEpoB were determined by HPLC as described in methods.
Human blood plasma or nude mice plasma (300 μl) containing dEpoB (0.05-20 μg/ml) was added 30 μl of methanol and mixed for 2 min and then added 300 μl of methanol. The centrifuge supernatant was used for high performance liquid chromatography (HPLC). Nova-pak C18 column (15 cm) was used, with 50% acetonitrile/water with 0.8% triethylamine and 0.2% phosphoric acid as mobile phase. UV absorbance at 250 nm was measured.

“And” between values parts separate entries of the source, which are not always exact repeats. Equal entries are not always repeated. Where two headings read alike, the source gives them in different places.

As for `C/C1=C/C[C@@H](/C(C)=C/c2csc(C)n2)OC(=O)C[C@H](O)C(C)(C)C(=O)[C@H](C)[C@@H](O)[C@@H](C)CCC1` [dEpoB, 12,13-desoxyepothilone B], for the setting “read-out: plasma concentration at the end of 24-hr collection”, the concentration at 24 hr was 45 ng/mL and 92 nM. For the same compound, the half-life (read-out: α-phase t1/2 (converted)) is 1.9 h and the half-life (read-out: β-phase t1/2 (converted)) is 21 h.
